Experimental findings from ChEMBL document CHEMBL1201862, “PubChem BioAssay data set” (2004) are described below.

Some test systems named below: T47D; SNB-75; IGROV-1; CAKI-1; SNB-19; UACC-257; MCF7; SF-539; U-251; NCI-H522; SK-OV-3; OVCAR-5; SF-295; OVCAR-3; RXF 393; M14; SW-620; 786-0; NCI-H226; CCRF-CEM.
What all share (assay): NCI anticancer screen, dose series, 48 h

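Test compounds were applied to cells in 96-well plates for 48 hours at 5 doses. The concentration for 50% growth inhibition is given as GI50.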 The source made the active and inactive calls. Cut-off read from the data, not from the text of the source: active = GI50 up to about 1.1 µM and inactive = higher.

Take `COc1ccc(NCc2c(O)ccc3ccccc23)cc1`: the GI50 was 17.4 µM (inactive) in the test with T47D; > 100 µM (inactive) in the test on SNB-75; 20.4 µM (inactive) with IGROV-1; 22.3 µM (inactive) with CAKI-1; > 100 µM (inactive) with SNB-19; 18.4 µM (inactive) with UACC-257. Besides, the GI50 in the test with MCF7 was 28.8 µM (inactive); in the test with SF-539, 13.2 µM (inactive); with U-251 it was 28.3 µM (inactive); in the test with NCI-H522 it was 14.8 µM (inactive); in the test with SK-OV-3, > 100 µM (inactive); in the test with OVCAR-5, 11.3 µM (inactive). Besides, the GI50 is 43 µM (inactive) in the test on SF-295; 27.2 µM (inactive) in the test with OVCAR-3; 16.5 µM (inactive) in the test on RXF 393; 14 µM (inactive) in the test with M14; 21.4 µM (inactive) in the test on SW-620; 16.4 µM (inactive) in the test on 786-0.

For `CCC12CCCN3CCc4c(n(c5ccccc45)C(O)(C(=O)OC)C1)C32` (stereo not drawn), the GI50 in the test with T47D, in the test on NCI-H226, in the test on SNB-75, in the test with IGROV-1, with CAKI-1 and with SNB-19 was > 100 µM (inactive) throughout. Also, the GI50 in the test with UACC-257, with MCF7, in the test on SF-539, with U-251, in the test on NCI-H522 and in the test on SK-OV-3 was > 100 µM (inactive) in each case. Further, the GI50 in the test on OVCAR-5, in the test with SF-295, with OVCAR-3, in the test with M14, in the test on SW-620 and in the test with CCRF-CEM was > 100 µM (inactive) in each case. For the same compound, in the test on 786-0, the GI50 is > 100 µM (inactive).

With `CCOC(=O)c1cc2c3c(c(C(C)=O)c(O)c2[nH]1)N(C(C)=O)CC3`, the GI50 is 46.7 µM (inactive) with T47D; 71.4 µM (inactive) with NCI-H226; > 100 µM (inactive) with SNB-75; 31.8 µM (inactive) in the test on IGROV-1; > 100 µM (inactive) with CAKI-1; > 100 µM (inactive) with SNB-19. For the same compound, the GI50 in the test on UACC-257 was > 100 µM (inactive); in the test with MCF7, 55.8 µM (inactive); with SF-539, 48.9 µM (inactive); in the test on U-251, > 100 µM (inactive); with SK-OV-3, > 100 µM (inactive); in the test with OVCAR-5, > 100 µM (inactive). Moreover, the GI50 with SF-295 is 52.7 µM (inactive); in the test with OVCAR-3 it was 34 µM (inactive); with RXF 393, 21.7 µM (inactive); in the test on M14, 76.6 µM (inactive); in the test with SW-620 it was > 100 µM (inactive); with CCRF-CEM, 46 µM (inactive). The GI50 in the test on 786-0 is > 100 µM (inactive).

Regarding `CN(Nc1cc(=O)[nH]c(=O)[nH]1)c1ccccc1`, the GI50 in the test on T47D is > 100 µM (inactive); in the test with NCI-H226, > 100 µM (inactive); in the test with SNB-75 it was 58.9 µM (inactive); in the test on IGROV-1 it was > 100 µM (inactive); in the test with CAKI-1 it was > 100 µM (inactive); in the test with SNB-19 it was > 100 µM (inactive). The GI50 in the test on UACC-257, in the test on MCF7, with SF-539, in the test on U-251, in the test on SK-OV-3 and in the test with OVCAR-5 was > 100 µM (inactive) in each case. Also, the GI50 in the test on SF-295, in the test on OVCAR-3, with RXF 393, in the test on M14, with SW-620 and in the test on CCRF-CEM was > 100 µM (inactive) each time. In addition, the GI50 with 786-0 is > 100 µM (inactive).

Turning to `COc1ccc(C2SCC(=O)N2NC(=O)c2ccc(NC(C)=O)cc2)cc1` (stereo not drawn), the GI50 with T47D, in the test on NCI-H226, in the test on SNB-75, with IGROV-1, in the test on SNB-19 and in the test with UACC-257 was > 100 µM (inactive) each time. The GI50 with MCF7 was > 100 µM (inactive); in the test with SF-539, > 100 µM (inactive); in the test on U-251, 40.6 µM (inactive); in the test on SK-OV-3 it was > 100 µM (inactive); with OVCAR-5, > 100 µM (inactive); in the test with SF-295 it was > 100 µM (inactive). Besides, the GI50 in the test on OVCAR-3, in the test on RXF 393, in the test on M14, in the test on SW-620 and with 786-0 was > 100 µM (inactive) in each case.

`c1ccc(-c2cc(-c3cccs3)c(-c3cccs3)o2)cc1`: the GI50 with T47D, in the test with NCI-H226, in the test on SNB-75, in the test on IGROV-1, in the test on CAKI-1 and with SNB-19 was > 100 µM (inactive) in each case. Moreover, the GI50 is > 100 µM (inactive) with UACC-257; 32.2 µM (inactive) in the test with MCF7; > 100 µM (inactive) with SF-539; > 100 µM (inactive) with U-251; > 100 µM (inactive) in the test on SK-OV-3; > 100 µM (inactive) in the test with OVCAR-5. The GI50 with SF-295 was > 100 µM (inactive); in the test on OVCAR-3, 61.1 µM (inactive); with RXF 393, > 100 µM (inactive); in the test with M14 it was > 100 µM (inactive); with SW-620, > 100 µM (inactive); in the test with CCRF-CEM, > 100 µM (inactive). Moreover, in the test with 786-0, the GI50 is > 100 µM (inactive).

In the case of `COC(=O)C1(Cc2ccc3c(c2)CCC3)Cc2ccccc2C1=O` (stereo not drawn), the GI50 with T47D was 19.3 µM (inactive); in the test with NCI-H226 it was 18.2 µM (inactive); in the test on SNB-75 it was 10.8 µM (inactive); in the test on IGROV-1, 14 µM (inactive); in the test on CAKI-1, 19.6 µM (inactive); with SNB-19, 20.7 µM (inactive). Besides, the GI50 with UACC-257 is 18.5 µM (inactive); in the test with MCF7, 7.06 µM (inactive); in the test with SF-539 it was 16 µM (inactive); with U-251, 13.4 µM (inactive); with NCI-H522, 7.66 µM (inactive); in the test on SK-OV-3, 15.7 µM (inactive). Moreover, the GI50 is 26.4 µM (inactive) in the test with OVCAR-5; 9.98 µM (inactive) in the test with SF-295; 14.5 µM (inactive) in the test on OVCAR-3; 9.53 µM (inactive) in the test on M14; 4.49 µM (inactive) in the test with SW-620; 6.97 µM (inactive) in the test on CCRF-CEM. Moreover, the GI50 in the test with 786-0 was 24.5 µM (inactive).

Regarding `CSCCCS/C1=C/CCCCCCCCCC1`, the GI50 with T47D is > 100 µM (inactive); in the test with NCI-H226 it was > 100 µM (inactive); with SNB-75, 0.281 µM (active); in the test on IGROV-1 it was > 100 µM (inactive); with CAKI-1, > 100 µM (inactive); in the test with SNB-19 it was > 100 µM (inactive). In addition, the GI50 in the test on UACC-257, in the test on MCF7, in the test with SF-539, in the test with U-251, in the test with SK-OV-3 and in the test with OVCAR-5 was > 100 µM (inactive) throughout. Further, the GI50 with SF-295, in the test on OVCAR-3, in the test with RXF 393, in the test with M14 and in the test with 786-0 was > 100 µM (inactive) each time.

With `CSc1nncc2[nH]cnc12`, the GI50 in the test on T47D, in the test on NCI-H226, in the test with SNB-75, with IGROV-1, with CAKI-1 and in the test on SNB-19 was > 100 µM (inactive) in each case. Also, the GI50 in the test on UACC-257, with MCF7, with SF-539, in the test with U-251, in the test with OVCAR-5 and with SF-295 was > 100 µM (inactive) each time. Besides, the GI50 in the test on OVCAR-3, in the test on RXF 393, in the test on M14, in the test with SW-620, in the test with CCRF-CEM and in the test on 786-0 was > 100 µM (inactive) in each case.

Regarding `O=S(=O)(c1ccccc1)n1c(C(O)c2ccccc2)cc2ccccc21` (stereo not drawn), the GI50 in the test with T47D is 21.3 µM (inactive); in the test with NCI-H226 it was 13.1 µM (inactive); in the test with SNB-75, 14.7 µM (inactive); in the test with IGROV-1 it was 15.5 µM (inactive); in the test with CAKI-1, 17.7 µM (inactive); with SNB-19, 13.7 µM (inactive). The GI50 in the test with UACC-257 is 16.2 µM (inactive); in the test on MCF7, 21.2 µM (inactive); with SF-539 it was 16.7 µM (inactive); with U-251, 16.7 µM (inactive); in the test with SK-OV-3, 15 µM (inactive); in the test with OVCAR-5 it was 15.7 µM (inactive). Moreover, the GI50 is 16.9 µM (inactive) with SF-295; 16.7 µM (inactive) in the test with OVCAR-3; 14.3 µM (inactive) with RXF 393; 14.9 µM (inactive) with M14; 24 µM (inactive) with SW-620; 9.46 µM (inactive) in the test with CCRF-CEM. In addition, in the test on 786-0, the GI50 is 14.1 µM (inactive).

For the compound `COc1ccc(NC(=O)/C(=N\NC(=O)C[n+]2ccccc2)c2c(O)c3ccc(O)cc3oc2=O)c([N+](=O)[O-])c1`, the GI50 was > 100 µM (inactive) in the test on T47D; > 100 µM (inactive) in the test on NCI-H226; 92 µM (inactive) in the test on SNB-75; > 100 µM (inactive) in the test on IGROV-1; > 100 µM (inactive) with CAKI-1; > 100 µM (inactive) with SNB-19. Moreover, the GI50 in the test with UACC-257, in the test with MCF7, in the test on SF-539, with U-251, in the test with NCI-H522 and in the test on SK-OV-3 was > 100 µM (inactive) in each case. Also, the GI50 with OVCAR-5, in the test on SF-295, with OVCAR-3, in the test with M14, with SW-620 and in the test with CCRF-CEM was > 100 µM (inactive) each time. Besides, the GI50 with 786-0 is > 100 µM (inactive).
